# Measurements reported in patent publication US20250092033A1, “HETEROAROMATIC NITROGEN-OXIDE COMPOUND, PREPARATION METHOD THEREFOR, AND USE THEREOF” (BEIJING AVISTONE BIOTECHNOLOGY CO., LTD., priority 2021, published 2025).
# Key:
# MET D1228N = molecular target: T1, MET D1228N (Homo sapiens, UniProt P08581, D1228N); assay: Kinase inhibition experiment (HTRF KinEASE-TK kit), mutant MET D1228N; type: biochemical; details: 10 concentrations, 3-fold dilution
# T1 construct: purchased Signalchem M52-12IG
# T1 sequence (P08581 25-1390 D1228N): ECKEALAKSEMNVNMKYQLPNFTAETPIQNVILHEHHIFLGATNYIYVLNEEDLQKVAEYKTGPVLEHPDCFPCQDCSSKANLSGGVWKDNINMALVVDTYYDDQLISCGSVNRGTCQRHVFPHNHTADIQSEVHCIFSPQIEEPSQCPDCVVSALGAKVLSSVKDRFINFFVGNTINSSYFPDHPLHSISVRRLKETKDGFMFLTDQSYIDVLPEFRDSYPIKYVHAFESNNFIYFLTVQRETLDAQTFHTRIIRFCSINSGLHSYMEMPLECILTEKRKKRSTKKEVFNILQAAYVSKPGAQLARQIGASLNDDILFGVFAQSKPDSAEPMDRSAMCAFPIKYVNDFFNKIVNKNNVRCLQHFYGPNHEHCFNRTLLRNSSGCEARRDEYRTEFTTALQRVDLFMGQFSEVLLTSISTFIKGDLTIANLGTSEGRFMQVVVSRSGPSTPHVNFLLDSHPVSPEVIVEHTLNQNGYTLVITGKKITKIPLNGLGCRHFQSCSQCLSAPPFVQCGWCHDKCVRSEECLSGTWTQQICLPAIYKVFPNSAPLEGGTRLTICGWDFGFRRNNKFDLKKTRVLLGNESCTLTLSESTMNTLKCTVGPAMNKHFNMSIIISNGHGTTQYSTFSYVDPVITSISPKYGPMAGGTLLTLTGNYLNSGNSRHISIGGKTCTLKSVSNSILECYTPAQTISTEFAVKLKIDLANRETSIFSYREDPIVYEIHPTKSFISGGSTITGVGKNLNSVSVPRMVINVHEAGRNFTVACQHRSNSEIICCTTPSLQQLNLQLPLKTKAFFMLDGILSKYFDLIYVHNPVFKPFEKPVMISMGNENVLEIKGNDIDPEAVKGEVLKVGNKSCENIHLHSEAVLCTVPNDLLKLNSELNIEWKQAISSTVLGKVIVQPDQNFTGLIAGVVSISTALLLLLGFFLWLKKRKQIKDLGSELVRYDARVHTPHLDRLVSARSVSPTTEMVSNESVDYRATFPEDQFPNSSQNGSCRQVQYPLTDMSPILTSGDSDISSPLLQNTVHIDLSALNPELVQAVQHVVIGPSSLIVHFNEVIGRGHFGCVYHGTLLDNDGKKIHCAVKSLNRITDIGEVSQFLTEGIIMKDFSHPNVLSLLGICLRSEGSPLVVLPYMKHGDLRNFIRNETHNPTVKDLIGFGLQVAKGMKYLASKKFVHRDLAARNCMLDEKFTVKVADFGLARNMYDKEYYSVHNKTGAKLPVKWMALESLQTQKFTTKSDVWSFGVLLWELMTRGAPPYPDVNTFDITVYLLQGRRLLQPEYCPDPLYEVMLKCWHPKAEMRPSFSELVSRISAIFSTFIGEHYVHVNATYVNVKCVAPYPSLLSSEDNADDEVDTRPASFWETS
# Protocol: (§1) The activity of the compounds was determined by detecting the residual amount of ATP after reacting with wild-type or mutant MET protein kinase by using an HTRF KinEASE-TK kit. […]
# (§2) The compounds were determined on the selected kinase, the solvent control was set and a total of 10 concentrations were detected, diluted 3-fold, 2 replicates per concentration.
# (§3) 1 volume of 5× kinase reaction buffer and 4 volumes of water; 5 mM MgCl2; 1 mM DTT; 1 mM MnCl2; or 2500 nm SEB.
# (§4) 1) 10 nl or 4 μlof the diluted compound was transferred to each well of the reaction plate (784075 or 264706, Greiner or Thermo) with a pipette, the reaction plate was sealed with a sealing plate, and centrifuged at 1000 for 1 minute.
# (§5) 2) 2× MET was prepared from 1× enzyme reaction buffer, 5 μl or 2 μl kinase was added to each well of the reaction plate, the reaction plate was sealed with a sealing plate, centrifuged at 1000 g for 30 seconds and incubated at room temperature for 10 min.
# (§6) 3) a mixed solution of 2× TK-substrate-biotin and ATP were prepared from 1× enzyme reaction buffer solution, 5 μl or 2 μl TK-substrate-biotin/ATP of the mixed solution was added into a reaction plate, the reaction plate was sealed with a sealing plate, centrifuged at 1000 g for 30 seconds and reacted for 50 minutes or 10 minutes at room temperature.
# (§7) 4) a mixed solution of 4× or 2× Sa-XL 665 and TK-antibody-Cryptate were prepared from HTRF detection buffer, 5 or 10 μl of the mixed solution of Sa-XL 665 and TK-antibody-Cryptate was added into each well, centrifuged at 1000 g for 30 seconds, and reacted at room temperature for 1 h.
# (§8) 5) the fluorescence signals at 615 nm (cryptate) and 665 nm (XL665) were read with Envision 2104 or TECAN.
# (§9) The data was analyzed using GraphPad Prism 6.0 or 7 software, and the dose-response curve was fitted with nonlinear S-curve regression, and the IC50 value was calculated therefrom.
# (§10) Enzyme Inhibition Percent (%)=100-(Signalmpd-SignalAve_PC)/(SignalAve_VC-SignalAve_PC)×100
# H1993 cell line = assay: Cell proliferation inhibition experiment (CellTiter-Glo), H1993; type: cell-based; details: Homo sapiens, NCI-H1993, CTG, 72 h
# Protocol: CellTiter-Glo™ live cell detection kit adopts luciferase as the detection substance, and the luciferase needs the participation of ATP in the luminescence process. CellTiter-Glo™ reagent was added into the cell culture medium and the luminescence value was measured. The light signal is in direct proportion to the amount of ATP in the system, ATP is in direct correlation with number of living cells. Therefore, the proliferation of cells can be detected by detecting the content of ATP with CellTiter-Glo kit.
# In the experiment, the proliferation inhibition effect of the prepared compounds on tumor cell lines Hs746T, EBC-1 and H1993 was measured by a celltiter-glo (CTG) method, and 50% inhibition concentration IC50 was calculated.
# The compounds were determined on the selected cells, the solvent control was set and a total of 10 concentrations were detected, 2 replicates per concentration.
# a) Cells in the logarithmic growth phase were harvested and counted by a […]. The cell viability was detected by a trypan blue exclusion method to ensure that the cell viability was over 90%.
# b) The cell concentration was adjusted; 30 μL of cell suspension was added to a 384-well plate respectively.
# c) Cells in a 384-well plate were incubated overnight at 37° C., 5% CO2 and 95% humidity.
# a) 10 times of drug solution was prepared with the highest concentration of 10 mM, 10 concentrations and 3 times dilution, 10 μL of drug solution was added into each well of a 384-well plate inoculated with cells, and three multiple wells were arranged for each drug concentration. DMSO was the blank control.
# b) The cells in the 384-well plate were incubated for a further 72 h at 37° C., 5% CO2 and 95% humidity before CTG analysis.
# a) The CTG reagent was melted and the cell plate was equilibrated to room temperature for 30 min.
# b) An equal volume of CTG solution was added to each well.
# c) Cells were lysed by shaking on an orbital shaker for 5 minutes.
# d) The cell plate was left at room temperature for 20 minutes to stabilize the luminescence signal.
# e) The cold light value was read.
# The data was analyzed by GraphPad Prism 8 software, and the dose-response curve was fitted with nonlinear S-curve regression, and the IC50 value was calculated therefrom.
# Cell viability(%)=(Lumdrugs to be tested-Lumblank control)/(Lumcell control-Lumblank control)×100%.
# MET F1200I = molecular target: T2, MET F1200I (Homo sapiens, UniProt P08581, F1200I); assay: Kinase inhibition experiment (HTRF KinEASE-TK kit), mutant MET F1200I; type: biochemical; details: 10 concentrations, 3-fold dilution
# T2 construct: purchased Signalchem M52-12GG/Y767-2
# T2 sequence (P08581 25-1390 F1200I): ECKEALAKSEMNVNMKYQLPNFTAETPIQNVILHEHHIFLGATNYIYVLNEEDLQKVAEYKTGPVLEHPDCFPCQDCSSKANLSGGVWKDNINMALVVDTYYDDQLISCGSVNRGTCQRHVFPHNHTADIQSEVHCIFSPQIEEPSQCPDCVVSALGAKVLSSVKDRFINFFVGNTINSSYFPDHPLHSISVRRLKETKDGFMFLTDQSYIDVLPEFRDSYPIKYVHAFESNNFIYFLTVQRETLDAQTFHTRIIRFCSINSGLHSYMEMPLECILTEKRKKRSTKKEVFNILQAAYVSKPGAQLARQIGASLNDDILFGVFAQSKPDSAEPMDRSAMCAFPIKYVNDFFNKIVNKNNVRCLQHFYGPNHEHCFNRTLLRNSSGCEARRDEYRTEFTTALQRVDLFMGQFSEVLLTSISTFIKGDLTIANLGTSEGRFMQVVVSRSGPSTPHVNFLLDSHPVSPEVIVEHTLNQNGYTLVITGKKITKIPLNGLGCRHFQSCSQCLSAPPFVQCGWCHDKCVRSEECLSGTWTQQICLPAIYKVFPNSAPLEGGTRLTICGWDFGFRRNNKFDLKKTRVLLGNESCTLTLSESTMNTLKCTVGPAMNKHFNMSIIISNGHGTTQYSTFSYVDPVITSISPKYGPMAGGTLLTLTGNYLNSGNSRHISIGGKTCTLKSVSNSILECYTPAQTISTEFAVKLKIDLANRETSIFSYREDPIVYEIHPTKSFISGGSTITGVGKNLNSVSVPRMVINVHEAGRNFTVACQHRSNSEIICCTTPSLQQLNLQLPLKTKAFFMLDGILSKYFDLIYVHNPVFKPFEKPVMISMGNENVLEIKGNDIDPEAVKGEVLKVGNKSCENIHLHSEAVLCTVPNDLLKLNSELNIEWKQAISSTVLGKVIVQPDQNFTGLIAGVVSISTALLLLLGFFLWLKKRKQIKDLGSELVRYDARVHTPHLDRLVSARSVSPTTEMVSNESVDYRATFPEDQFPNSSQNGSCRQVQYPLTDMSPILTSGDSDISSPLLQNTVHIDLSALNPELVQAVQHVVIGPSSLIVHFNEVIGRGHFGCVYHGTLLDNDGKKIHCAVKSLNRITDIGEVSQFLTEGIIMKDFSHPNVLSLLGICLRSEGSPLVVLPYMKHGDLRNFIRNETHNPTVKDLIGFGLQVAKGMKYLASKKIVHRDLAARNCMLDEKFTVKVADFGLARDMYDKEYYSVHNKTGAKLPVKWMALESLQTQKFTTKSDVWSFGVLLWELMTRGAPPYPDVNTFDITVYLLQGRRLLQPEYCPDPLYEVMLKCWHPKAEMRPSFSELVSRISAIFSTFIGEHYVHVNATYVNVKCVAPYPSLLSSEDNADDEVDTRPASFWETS
# Protocol: as §1, §2, §3, §4, §5, §6, §7, §8, §9, §10
# [1] = molecular target: T3, wild type (WT) MET kinase (Homo sapiens, UniProt P08581); assay: Kinase inhibition experiment (HTRF KinEASE-TK kit), wild-type MET; type: biochemical; details: 10 concentrations, 3-fold dilution
# T3 construct: purchased Carna 08-151
# T3 sequence (P08581 25-1390): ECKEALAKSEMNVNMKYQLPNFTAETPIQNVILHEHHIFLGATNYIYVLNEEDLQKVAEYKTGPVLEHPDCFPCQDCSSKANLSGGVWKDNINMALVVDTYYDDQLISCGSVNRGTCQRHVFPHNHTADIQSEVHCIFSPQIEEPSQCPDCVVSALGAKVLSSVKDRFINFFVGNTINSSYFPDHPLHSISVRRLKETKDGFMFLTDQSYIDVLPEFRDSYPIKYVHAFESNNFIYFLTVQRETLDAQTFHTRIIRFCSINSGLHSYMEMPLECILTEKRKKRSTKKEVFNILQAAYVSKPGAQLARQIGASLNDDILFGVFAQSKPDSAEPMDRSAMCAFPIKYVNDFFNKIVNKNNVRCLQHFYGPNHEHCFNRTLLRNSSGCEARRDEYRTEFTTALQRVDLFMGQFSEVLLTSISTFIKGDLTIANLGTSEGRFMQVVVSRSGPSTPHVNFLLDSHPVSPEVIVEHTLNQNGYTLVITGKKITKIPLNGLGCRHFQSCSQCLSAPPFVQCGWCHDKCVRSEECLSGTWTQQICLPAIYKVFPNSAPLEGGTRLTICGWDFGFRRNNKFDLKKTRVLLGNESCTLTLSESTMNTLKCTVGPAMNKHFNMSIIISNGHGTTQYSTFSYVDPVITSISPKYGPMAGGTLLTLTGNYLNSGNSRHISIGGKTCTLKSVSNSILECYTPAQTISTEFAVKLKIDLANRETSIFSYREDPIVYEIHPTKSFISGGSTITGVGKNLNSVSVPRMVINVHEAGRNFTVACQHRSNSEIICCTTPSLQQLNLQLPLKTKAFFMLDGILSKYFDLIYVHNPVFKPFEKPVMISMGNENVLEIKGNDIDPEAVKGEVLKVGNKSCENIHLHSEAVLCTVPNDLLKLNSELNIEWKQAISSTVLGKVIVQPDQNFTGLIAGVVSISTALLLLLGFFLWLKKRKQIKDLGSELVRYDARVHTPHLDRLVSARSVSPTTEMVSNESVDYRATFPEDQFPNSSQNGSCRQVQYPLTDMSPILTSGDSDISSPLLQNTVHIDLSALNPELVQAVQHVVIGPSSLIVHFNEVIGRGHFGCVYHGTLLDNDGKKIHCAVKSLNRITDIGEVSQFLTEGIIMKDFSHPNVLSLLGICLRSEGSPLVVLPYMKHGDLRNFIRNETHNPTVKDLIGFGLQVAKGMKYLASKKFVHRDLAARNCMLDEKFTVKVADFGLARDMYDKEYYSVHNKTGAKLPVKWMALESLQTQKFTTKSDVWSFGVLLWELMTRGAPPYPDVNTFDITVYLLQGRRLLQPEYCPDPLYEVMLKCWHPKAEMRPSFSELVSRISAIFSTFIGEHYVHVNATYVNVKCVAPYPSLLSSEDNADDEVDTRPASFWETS
# Protocol: as §1, §2, §3, §4, §5, §6, §7, §8, §9, §10
SMILES,IC50 (MET D1228N),IC50 (H1993 cell line),IC50 (MET F1200I),IC50 [1]
O=C(Nc1ccc(Oc2ccnc3[nH]nc(NCC(CO)CO)c23)c(F)c1)c1cccc(-c2ccc(F)cc2)[n+]1[O-] [Final product 17],7.5 nM,68.4 nM,5.8 nM,1.4 nM
O=C(Nc1ccc(Oc2ccnc3[nH]nc(N4CC(CO)C4)c23)c(F)c1)c1cccc(-c2ccc(F)cc2)[n+]1[O-] [Final product 25],20.5 nM,62.2 nM,4.3 nM,1.9 nM
CC(O)C1CCN(c2n[nH]c3nccc(Oc4ccc(NC(=O)c5cccc(-c6ccc(F)cc6)[n+]5[O-])cc4F)c23)CC1 (stereo not drawn) [Final product 31],40.7 nM,35 nM,7.9 nM,3 nM
CC(O)C(CO)CNc1n[nH]c2nccc(Oc3ccc(NC(=O)c4cccc(-c5ccc(F)cc5)[n+]4[O-])cc3Cl)c12 (stereo not drawn) [Final product 102],6.3 nM,–,2.1 nM,1 nM
CC(O)C1CN(c2n[nH]c3nccc(Oc4ccc(NC(=O)c5cccc(-c6ccc(F)cc6)[n+]5[O-])cc4Cl)c23)C1 (stereo not drawn) [Final product 107],26.8 nM,76.9 nM,12.3 nM,1.6 nM
O=C(Nc1ccc(Oc2ccnc3[nH]nc(NC4CC(CO)C4)c23)c(Cl)c1)c1cccc(-c2ccc(F)cc2)[n+]1[O-] (stereo not drawn) [Final product 113],22.5 nM,–,9.2 nM,3.3 nM
O=C(Nc1ccc(Oc2ccnc3[nH]nc(N[C@H]4COC[C@@H]4O)c23)c(Cl)c1)c1ccc(F)c(-c2ccc(F)cc2)[n+]1[O-] [Final product 120],17.6 nM,–,14.5 nM,1.3 nM
O=C(Nc1ccc(Oc2ccnc3[nH]nc(N[C@H]4COC[C@@H]4O)c23)c(Cl)c1)c1ccc(Cl)c(-c2ccc(F)cc2)[n+]1[O-] [Final product 123],30.1 nM,–,10 nM,1 nM
Cc1ccc(C(=O)Nc2ccc(Oc3ccnc4[nH]nc(N[C@H]5COC[C@@H]5O)c34)c(Cl)c2)[n+]([O-])c1-c1ccc(F)cc1 [Final product 129],21.1 nM,–,8.8 nM,0.6 nM
C[C@H](CO)Nc1n[nH]c2nccc(Oc3ccc(NC(=O)c4ccc(OC(F)F)c(-c5ccc(F)cc5)[n+]4[O-])cc3Cl)c12 [Final product 139],18.5 nM,31.1 nM,15.3 nM,4.5 nM
C[C@H](CO)Nc1n[nH]c2nccc(Oc3ccc(NC(=O)c4ccc(F)c(-c5ccc(F)cc5)[n+]4[O-])c(F)c3)c12 [Final product 155],27.4 nM,–,13.2 nM,5.6 nM
C[C@H](CO)Nc1n[nH]c2nccc(Oc3cc(F)c(NC(=O)c4ccc(Cl)c(-c5ccc(F)cc5)[n+]4[O-])cc3F)c12 [Final product 157],46.2 nM,–,17.5 nM,1.7 nM
C[C@H](CO)Nc1n[nH]c2nccc(Oc3cc(F)c(NC(=O)c4ccc(Cl)c(-c5ccc(F)cc5)[n+]4[O-])cc3Cl)c12 [Final product 158],29.4 nM,–,15.9 nM,2.5 nM
Cc1ccc(C(=O)Nc2ccc(Oc3ccnc4[nH]nc(N[C@H](C)CO)c34)cc2F)[n+]([O-])c1-c1ccc(F)cc1 [Final product 160],19.6 nM,–,12.9 nM,5.7 nM
"C[C@H](CO)Cn1ccc2ncnc(Oc3ccc(NC(=O)c4cccc(-c5ccc(F)cc5)[n+]4[O-])cc3F)c21 [Final product 169, (S)-2-((3-fluoro-4-((5-(3-hydroxy-2-methylpropyl)-5H-pyrrolo[3,2-d]pyrimidin-4-yl)oxy)phenyl)carbamoyl)-6-(4-fluorophenyl)pyridine 1-oxide]",6.9 nM,–,2.1 nM,1.8 nM

# More lines, in order of falling IC50 (MET D1228N), values ahead:
IC50 (MET D1228N),IC50 (H1993 cell line),IC50 (MET F1200I),IC50 [1],SMILES
45.1 nM,–,33 nM,18 nM,C[C@H](CO)Nc1n[nH]c2nccc(Oc3ccc(NC(=O)c4ccc(OCC(F)(F)F)c(-c5ccc(F)cc5)[n+]4[O-])cc3Cl)c12 [Final product 142]
30.2 nM,–,9.8 nM,18 nM,O=C(Nc1ccc(Oc2ccnc3[nH]nc(N[C@H]4CC[C@@H](O)C4)c23)c(Cl)c1)c1ccc(F)c(-c2ccc(F)cc2)[n+]1[O-] [Final product 119]
28.7 nM,–,10.7 nM,4.6 nM,C[C@H](CO)Nc1n[nH]c2nccc(Oc3ccc(NC(=O)c4cccc(-c5ccc(Cl)cc5)[n+]4[O-])cc3Cl)c12 [Final product 116]
26.3 nM,–,33 nM,1.9 nM,C[C@H](CO)Nc1n[nH]c2nccc(Oc3ccc(NC(=O)c4ccc(OCC(F)F)c(-c5ccc(F)cc5)[n+]4[O-])cc3Cl)c12 [Final product 141]
19 nM,42.3 nM,11.4 nM,4.3 nM,C[C@H](CO)Nc1n[nH]c2nccc(Oc3ccc(NC(=O)c4ccc(Cl)c(-c5ccc(F)cc5)[n+]4[O-])cc3Cl)c12 [Final product 121]
18.7 nM,–,10.7 nM,5.1 nM,O=C(Nc1ccc(Oc2ccnc3[nH]nc(N[C@H]4CC[C@@H](O)C4)c23)c(Cl)c1)c1cccc(-c2ccc(F)cc2)[n+]1[O-] [Final product 114]
16.7 nM,30.6 nM,10.1 nM,4.4 nM,O=C(Nc1ccc(Oc2ccnc3[nH]nc(N4CCC[C@@H](CO)C4)c23)c(F)c1)c1cccc(-c2ccc(F)cc2)[n+]1[O-] [Final product 32]
16.2 nM,–,8.5 nM,4.2 nM,"C[C@@H](CO)Cn1ccc2ncnc(Oc3ccc(NC(=O)c4cccc(-c5ccc(F)cc5)[n+]4[O-])cc3F)c21 [Final product 170, (R)-2-((3-fluoro-4-((5-(3-hydroxy-2-methylpropyl)-5H-pyrrolo[3,2-d]pyrimidin-4-yl)oxy)phenyl)carbamoyl)-6-(4-fluorophenyl)pyridine 1-oxide]"
15.5 nM,–,28.3 nM,3.3 nM,[2H]C([2H])([2H])c1ccc(C(=O)Nc2ccc(Oc3ccnc4[nH]nc(N[C@H](C)CO)c34)c(Cl)c2)[n+]([O-])c1-c1ccc(F)cc1 [Final product 134]
12.8 nM,33 nM,10.8 nM,5.2 nM,CC[C@H](CO)Nc1n[nH]c2nccc(Oc3ccc(NC(=O)c4cccc(-c5ccc(F)cc5)[n+]4[O-])cc3F)c12 [Final product 5]
11.2 nM,50.2 nM,5.5 nM,1.7 nM,O=C(Nc1ccc(Oc2ccnc3[nH]nc(N4CCC(F)(CO)CC4)c23)c(F)c1)c1cccc(-c2ccc(F)cc2)[n+]1[O-] [Final product 30]
10.9 nM,–,6 nM,0.8 nM,O=C(Nc1ccc(Oc2ccnc3[nH]nc(N[C@H]4COC[C@@H]4O)c23)c(Cl)c1)c1cccc(-c2ccc(F)cc2)[n+]1[O-] [Final product 115]
